Measurements published in publication PMC9146984, “A Novel Proline-Rich Cathelicidin from the Alpaca Vicugna pacos with Potency to Combat Antibiotic-Resistant Bacteria: Mechanism of Action and the Functional Role of the C-Terminal Region” (Membranes, 2022).
≈ marks a conversion by molar mass, not a printed value. Read-outs that look alike come from different tables or passages of the source. Where a SMILES comes first, the peptide text is derived from it.

Key:
E. coli CI 214 = experiment: Antimicrobial assay (MIC); type: cell-based, Escherichia coli; conditions: Mueller-Hinton broth supplemented with 0.9% NaCl
Experimental: (§1) The reduction of resazurin to resorufin was measured.

E. coli ML-35p = experiment: Antimicrobial assay (MIC); type: cell-based, Escherichia coli; conditions: Mueller-Hinton broth supplemented with 0.9% NaCl
Experimental: as §1

B. subtilis B-886 = experiment: Antimicrobial assay (MIC); type: cell-based, Bacillus subtilis; conditions: Mueller-Hinton broth supplemented with 0.9% NaCl
Experimental: as §1

E. coli BW25113 ΔsbmA = type: cell-based, Escherichia coli; conditions: for Minimum inhibitory concentration, E. coli strain ΔsbmA: Mueller–Hinton broth, 24 h, 37 °C, median
Experimental: as §1

E. coli BW25113 ΔmdtM = type: cell-based, Escherichia coli; conditions: Mueller–Hinton broth, 24 h, 37 °C, median
Experimental: as §1

E. coli BW25113 = type: cell-based, Escherichia coli; conditions: BW25113, 24 h
Experimental: as §1

E. coli BW25113 ΔompF = type: cell-based, Escherichia coli; conditions: Mueller–Hinton broth, 24 h, 37 °C, median
Experimental: as §1

S. aureus ATCC 29213 = experiment: Antimicrobial assay (MIC); type: cell-based, Staphylococcus aureus; conditions: Mueller-Hinton broth supplemented with 0.9% NaCl
Experimental: as §1

S. aureus MDR CI 119 = experiment: Antimicrobial assay (MIC); type: cell-based, Staphylococcus aureus; conditions: Mueller-Hinton broth supplemented with 0.9% NaCl
Experimental: as §1

S. aureus ATCC 6538P = experiment: Antimicrobial assay (MIC); type: cell-based, Staphylococcus aureus; conditions: Mueller-Hinton broth supplemented with 0.9% NaCl
Experimental: as §1

S. aureus ATCC 25923 = experiment: Antimicrobial assay (MIC); type: cell-based, Staphylococcus aureus; conditions: Mueller–Hinton broth supplemented with 0.9% NaCl
Experimental: as §1

P. mirabilis XDR CI 3423 = experiment: Antimicrobial assay (MIC); type: cell-based; conditions: Mueller-Hinton broth supplemented with 0.9% NaCl
Experimental: as §1

[1] = test system: B. licheniformis VKM B511; experiment: Antimicrobial assay (MIC); type: cell-based; conditions: Mueller-Hinton broth supplemented with 0.9% NaCl
Experimental: as §1

[2] = test system: Mycobacterium phlei Ac-1291; experiment: Antimicrobial assay (MIC); type: cell-based; conditions: Mueller-Hinton broth supplemented with 0.9% NaCl
Experimental: as §1

E. cloacae XDR CI 4172 = experiment: Antimicrobial assay (MIC); type: cell-based; conditions: Mueller-Hinton broth supplemented with 0.9% NaCl
Experimental: as §1

A. baumannii XDR CI 2675 = experiment: Antimicrobial assay (MIC); type: cell-based; conditions: Mueller-Hinton broth supplemented with 0.9% NaCl
Experimental: as §1

[3] = test system: K. pneumoniae ATCC 700603; experiment: Antimicrobial assay (MIC); type: cell-based; conditions: Mueller-Hinton broth supplemented with 0.9% NaCl
Experimental: as §1

[4] = test system: proinflammatory macrophages (MΦ1) from THP-1; experiment: Cytokine response (multiplex xMAP immunoassay); type: cell-based, human; conditions: 2 µM peptide, 24 h
Experimental: (§2) Acute monocytic leukemia THP-1 line (ATCC TIB-202) was cultured in complete RPMI 1640 medium (Invitrogen, Waltham, MA, USA) containing 10% FBS, 1× antibiotic-antimycotic solution (Invitrogen, Waltham, MA, USA), and 0.05 mM β-mercaptoethanol, in the CO2-incubator (5% CO2, 37 °C). THP-1 cells were differentiated into proinflammatory macrophages (MΦ1) according to the previously reported protocol. Primary peripheral blood mononuclear cells (PBMC) collected from a healthy donor were purchased from American Type Culture Collection (ATCC PCS-800-011), thawed, and seeded into a 96-well plate one day prior to the experiment at a density of 2 × 10^5 cells/well. Two different cell subpopulations (monocytes and T-/B-/NK-lymphocytes) were isolated from PBMC based on their adherence ability. Macrophages MΦ1 were washed out and seeded into 96-well plates at a density of 10^5 cells/well one day prior to the experiment. The next day medium in each well was replaced by a fresh complete RPMI 1640 medium with or without 2 μM of cathelicidin (VicBac[1–22] or VicBac[1–39]). Cell cultures were kept in a CO2 incubator (5% CO2, 37 °C) for 24 h. Culture supernatants were collected 24 h later and stored at −70 °C degrees less than one week prior to the assessment of analytes. 27 analytes were measured at a protein level by multiplex xMAP technology using the MILLIPLEX MAP Human Cytokine/Chemokine Magnetic Bead Immunology Panel kit (HCYTOMAG-60K-27, Merck, Darmstadt, Germany): eotaxin-1/CCL11, TGFα, GM-CSF, IFNα2, IFNγ, IL-10, IL-12p40, IL-12p70, IL-13, IL-15, sCD40L, IL-17A, IL-1RA, IL-1α, IL-9, IL-1β, IL-2, IL-3, IL-4, IL-5, IL-6, IL-7, IL-8/CXCL8, IP-10/CXCL10, RANTES/CCL5, TNFα, TNFβ. Multiplex-based assay read-out was performed using the MAGPIX system (Merck) with the xPONENT 4.2 software (Merck, Darmstadt, Germany) in accordance with the manufacturer’s instruction with overnight incubation of the samples with primary antibodies. The final analysis was carried out with the MILLIPLEX Analyst v5.1 software (Merck). Measurements were performed twice for each sample. The release of the analytes in control and experimental samples were compared by unpaired two-sample t-test using GraphPad Prism v.8.0.1. The p values ≤ 0.05 were considered significant.

PBMC = experiment: Cytokine response (multiplex xMAP immunoassay); type: cell-based, human; conditions: 2 µM peptide, 24 h
Experimental: as §2

primary monocytes = experiment: Cytokine response (multiplex xMAP immunoassay); type: cell-based, human; conditions: 2 µM peptide, 24 h
Experimental: as §2

T-/B-/NK-lymphocytes = experiment: Cytokine response (multiplex xMAP immunoassay); type: cell-based, human; conditions: 2 µM peptide, 24 h
Experimental: as §2

For CC[C@H](C)[C@H](NC(=O)[C@H](CCCNC(=N)N)NC(=O)[C@@H](N)CCCNC(=N)N)C(=O)N[C@@H](CCCNC(=N)N)C(=O)N[C@@H](CCCNC(=N)N)C(=O)N1CCC[C@H]1C(=O)N[C@@H](CCCNC(=N)N)C(=O)N[C@@H](CC(C)C)C(=O)N1CCC[C@H]1C(=O)N[C@@H](CCCNC(=N)N)C(=O)N1CCC[C@H]1C(=O)N[C@@H](CCCNC(=N)N)C(=O)N[C@H](C(=O)N1CCC[C@H]1C(=O)N[C@@H](CCCNC(=N)N)C(=O)N1CCC[C@H]1C(=O)N[C@@H](CCCNC(=N)N)C(=O)N[C@H](C(=O)N1CCC[C@H]1C(=O)N1CCC[C@H]1C(=O)N[C@@H](CCCNC(=N)N)C(=O)N[C@H](C(=O)N1CCC[C@H]1C(=O)N[C@@H](CCCNC(=N)N)C(=O)N1CCC[C@H]1C(=O)N[C@H](C(=O)N[C@@H](CC(C)C)C(=O)N1CCC[C@H]1C(=O)N1CCC[C@H]1C(=O)N1CCC[C@H]1C(=O)N[C@@H](CCCNC(=N)N)C(=O)N[C@H](C(=O)N1CCC[C@H]1C(=O)N[C@@H](Cc1ccccc1)C(=O)N1CCC[C@H]1C(=O)N[C@@H](CCCNC(=N)N)C(=O)N[C@@H](Cc1ccccc1)C(=O)N1CCC[C@H]1C(=O)N[C@@H](CCCNC(=N)N)C(N)=O)C(C)C)C(C)C)[C@@H](C)CC)[C@@H](C)CC)C(C)C [VicBac[1-39]] (H-RRIRRPRLPRPRVPRPRIPPRIPRPVLPPPRVPFPRFPR-NH2; N-terminus assumed), the “MIC, E. coli CI 214” value (E. coli CI 214) was 8 µM (≈ 38.5 µg/mL), the “MIC, E. coli ML-35p” value (E. coli ML-35p) was 0.5 µM (≈ 2.41 µg/mL) and the “MIC, B. subtilis B-886” value (B. subtilis B-886) was 16 µM (≈ 77.1 µg/mL). The “increase in MIC against ΔsbmA strain versus BW25113” value (E. coli BW25113 ΔsbmA; Mueller–Hinton broth with 0.9% NaCl) was 2 fold, the “Minimum inhibitory concentration, E. coli strain ΔsbmA” value (E. coli BW25113 ΔsbmA; 0.9% NaCl: +) was 2 µM (≈ 9.64 µg/mL) and the “Minimum inhibitory concentration, E. coli strain ΔsbmA” value (E. coli BW25113 ΔsbmA; 0.9% NaCl: −) was 2 µM (≈ 9.64 µg/mL). The “Minimum inhibitory concentration, E. coli strain ΔmdtM” value (E. coli BW25113 ΔmdtM; 0.9% NaCl: +) was 1 µM (≈ 4.82 µg/mL), the “Minimum inhibitory concentration, E. coli strain ΔmdtM” value (E. coli BW25113 ΔmdtM; 0.9% NaCl: −) was 2 µM (≈ 9.64 µg/mL) and the “Minimum inhibitory concentration, E. coli strain BW25113” value (E. coli BW25113) was 1 µM (≈ 4.82 µg/mL). For the same compound, the “Minimum inhibitory concentration, E. coli strain ΔompF” value (E. coli BW25113 ΔompF; 0.9% NaCl: +) was 1 µM (≈ 4.82 µg/mL), the “Minimum inhibitory concentration, E. coli strain ΔompF” value (E. coli BW25113 ΔompF; 0.9% NaCl: −) was 1 µM (≈ 4.82 µg/mL) and the “MIC, S. aureus ATCC 29213” value (S. aureus ATCC 29213) was > 32 µM. For the same compound, the “MIC, S. aureus MDR CI 119” value (S. aureus MDR CI 119) was > 32 µM, the “MIC, S. aureus ATCC 6538P” value (S. aureus ATCC 6538P) was 0.25 µM (≈ 1.2 µg/mL) and the “inhibition of S. aureus ATCC 25923” value (S. aureus ATCC 25923) was “could not inhibit”. For the same compound, the “MIC, P. mirabilis XDR CI 3423” value (P. mirabilis XDR CI 3423) was 8 µM (≈ 38.5 µg/mL), the “MIC, B. licheniformis VKM B511” value [1] was 1 µM (≈ 4.82 µg/mL) and the “MIC, Mycobacterium phlei Ac-1291” value [2] was 0.5 µM (≈ 2.41 µg/mL). For the same compound, the “MIC, E. cloacae XDR CI 4172” value (E. cloacae XDR CI 4172) was 4 µM (≈ 19.3 µg/mL), the “MIC, A. baumannii XDR CI 2675” value (A. baumannii XDR CI 2675) was 8 µM (≈ 38.5 µg/mL) and the “MIC, K. pneumoniae ATCC 700603” value [3] was 2 µM (≈ 9.64 µg/mL). For the same compound, the “TNFα production by macrophages” value ([4]; control 12.94 pg/mL, significance level quite low) was 28.68 pg/mL, the “IL-1RA on pro-inflammatory macrophages” value ([4]; control 25.21 pg/mL) was 9.47 pg/mL and the “IL-1RA on PBMC” value (PBMC; control 95.52 pg/mL) was 18.79 pg/mL. For the same compound, the “Production of RANTES/CCL5 on PBMC” value (PBMC; control 286.63 pg/mL) was 54.72 pg/mL, the “Production of TNFα by monocytes” value (primary monocytes; control 18.47 pg/mL, two biological replications) was 11.41 pg/mL and the “IL-1RA on primary monocytes” value (primary monocytes; control 163.77 pg/mL) was 37.82 pg/mL. For the same compound, the “Production of RANTES/CCL5 on primary monocytes” value (primary monocytes; control 284.28 pg/mL) was 71.5 pg/mL and the “CXCL10/IP-10 production in the T/B/NK culture” value (T-/B-/NK-lymphocytes) was “elevated”.
